How the values were obtained:
HepG2 cells = assay: WST-1 cell viability assay in HepG2 cells; type: cell-based; conditions: PLAG 1 to 100 μg/ml
Experimental: The incubated HepG2 cell lines are treated with PLAG (1˜100 μg/ml), followed by IL-4 and TNF-α, reacted for 1 hour, incubated for 18 hours at 37° C. and the supernatant isolated. Quantitation of the amount of C3 in the cellular culture medium (supernatant) from HepG2 cells is performed by ELISA using a commercially available monoclonal antibody (mAb, R&D Systems) and the manufacture's protocol; the results are presented in FIG. 3. C3 is expressed spontaneously under in vitro culture condition using 10% FCS added to HepG2 cells incubated for 12 hr. The cells are treated with different doses of PLAG from 1 to 100 μg/ml (Panel A, Panel B) or 10 and 100 μg/ml of S6I (Panel C), reacted with IL-4 and TNF-α for 1 hr and then incubated for 18 hr at 37° C. Cellular viability is confirmed using the WST-1 assay (Panel A).

[1] = test system: neutrophils, platelets, Complement 3; assay: Chemotherapy-induced neutropenia and thrombocytopenia (CIN) animal model; type: in vivo, mice
Experimental: The effect of PLAG for treatment of neutropenia and thrombocytopenia induced by chemotherapy (CIN) is evaluated in an animal model. Anti-cancer agents (Gemcitabine 50 mg/kg, Cyclosphosphamide […], or Tamoxifen 50 mg/kg) are dosed daily for 3 weeks; PLAG is also administered 50 mg/kg daily for 3 weeks. After three weeks, neutrophils are harvested and counted with Auto Hematology Analyzer BC-5300.
It is believed that the neutropenia and thrombocytopenia of these agents and other chemotherapeutic agents may be due at least in part to a specific complement-mediated toxicity. This is seen in FIG. 6.

platelets = assay: Phenylhydrazine-induced platelet reduction in mice; type: in vivo; conditions: PHZ 100 mg/kg i.p., PLAG 5 mg/kg orally
Experimental: To evaluate the effect of PLAG on the concentration of platelets mice are treated with compounds which would be expected to cause reductions in platelet numbers, specifically phenylhydrazine, tamoxifen or lipopolysaccharide.
Mice are injected with 100 mg/kg phenylhydrazine (PHZ), i.p., to induce anemia and reduction of platelets. 5 mg/kg PLAG is administered to the mice orally and blood samples are taken at 3 and 13 days after. In addition, for comparison, normal mice which are not treated with phenylhydrazine are prepared as a normal group, and mice treated with PHZ and olive oil instead of PLAG are prepared as a control group. The blood samples taken from the mice are treated with 0.5 ml EDTA (Minicollect tube, Greiner bio-one, Austria) and concentration of platelet is measured using automated blood sample analyzer BC-6800 (Mindray, Shenzhen, China) by number of platelet per […] (k: 1,000).

STAT6 = biological target: T1, STAT6 (Homo sapiens, UniProt P42226); assay: Reporter (luciferase) assay for STAT6 transcriptional activity in HepG2 cells; type: cell-based; design: endogenous in cells; host or cells: HepG2 (gene transfected); conditions: gene transfected HepG2, 10 ng IL-4, PLAG 0.01-10 μg/ml, 12 hours incubation
T1 sequence (P42226 1-847): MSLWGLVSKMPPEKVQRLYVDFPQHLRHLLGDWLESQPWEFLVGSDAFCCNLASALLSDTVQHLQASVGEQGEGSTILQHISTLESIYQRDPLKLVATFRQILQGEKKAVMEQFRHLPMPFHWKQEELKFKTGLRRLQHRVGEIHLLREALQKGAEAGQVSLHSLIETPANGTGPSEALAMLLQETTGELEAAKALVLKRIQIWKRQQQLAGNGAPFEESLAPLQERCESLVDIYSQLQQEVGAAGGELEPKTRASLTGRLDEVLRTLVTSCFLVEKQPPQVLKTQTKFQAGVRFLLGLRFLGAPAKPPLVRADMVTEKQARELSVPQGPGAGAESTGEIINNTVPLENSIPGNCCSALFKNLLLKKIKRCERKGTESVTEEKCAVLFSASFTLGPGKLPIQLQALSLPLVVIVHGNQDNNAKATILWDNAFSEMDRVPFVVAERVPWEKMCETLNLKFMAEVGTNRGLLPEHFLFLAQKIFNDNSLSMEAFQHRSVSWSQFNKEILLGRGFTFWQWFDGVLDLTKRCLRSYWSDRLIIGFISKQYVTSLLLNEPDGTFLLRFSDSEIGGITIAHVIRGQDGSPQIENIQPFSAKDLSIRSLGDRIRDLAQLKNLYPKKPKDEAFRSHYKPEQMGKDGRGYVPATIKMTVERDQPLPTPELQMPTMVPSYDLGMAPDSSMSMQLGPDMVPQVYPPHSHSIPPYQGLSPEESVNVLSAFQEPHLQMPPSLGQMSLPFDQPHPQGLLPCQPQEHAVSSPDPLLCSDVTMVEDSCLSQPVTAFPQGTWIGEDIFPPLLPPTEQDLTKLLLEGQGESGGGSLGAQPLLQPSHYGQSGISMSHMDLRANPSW
Experimental: By using STAT6 inhibitor (S6I), it is confirmed that the reduction of Complement 3 in HepG2 cells (human hepatocyte cell line) is regulated by STAT6. […] It is also confirmed that PLAG has selective efficacy on STAT6 over STAT1. FIG. 1 presents graphs showing STAT1 and STAT6 transcriptional activity in the PLAG treated HepG2 cells. NC refers to the unstimulated control cell. For the STAT1 assay, gene transfected HepG2 (human hepatocyte cell line) is treated with 10 ng of IFN-γ and serially diluted PLAG is added (0.01 μg/ml, 0.1 μg/ml, 1 μg/ml, and 10 μg/ml as shown) to see its effect on gene expression in the stimulated cell. For the STAT6 assay, gene transfected HepG2 cells are treated with 10 ng of IL-4 and again serially diluted PLAG is added (0.01 μg/ml, 0.1 μg/ml, 1 μg/ml, and 10 μg/ml as shown) to see its effect on gene expression in the stimulated cell. The assay is carried out following 12 hours incubation of treated cells.

Structure (SMILES): CCCCC/C=C\C/C=C\CCCCCCCC(=O)OC(COC(C)=O)COC(=O)CCCCCCCCCCCCCCC (racemic) [PLAG, 1-palmitoyl-2-linoleoyl-3-acetylglycerol]
- cellular viability (WST-1) (HepG2 cells): does not affect the cellular propagation and death
- neutrophil score ([1]; Gemcitabine 50 mg/kg with PLAG 50 mg/kg): improved significantly
- survival rate ([1]; Gemcitabine with continued PLAG vs Gemcitabine alone): improved survival rate
- reduced neutrophil count following chemotherapy ([1]; Gemcitabine, Cyclophosphamide or Tamoxifen daily 3 weeks, PLAG 50 mg/kg daily 3 weeks): prevented
- Complement 3 activation by chemotherapeutic agents, blockage ([1]; Gemcitabine, Cyclophosphamide or Tamoxifen with PLAG): largely blocked
- activities and survival rate ([1]; Tamoxifen 50 mg/kg co-treated with PLAG 50 mg/kg vs Tamoxifen only): faster improvement of activities and survival rate
- neutrophil count ([1]; cyclophosphamide with PLAG 50 mg/kg vs control group): improved significantly
- Platelet (day 3) Conc (platelets): 1072 ± 125.4 k/ul
- STAT6 expression (transcriptional activity, reporter) (STAT6): significant, dose-dependent effect

Reference: US11491132B2, “Methods for treating thrombocytopenia” (Enzychem Lifesciences Corporation, priority 2014, dated 2022)
